Results published in patent US20230241158A1, “Hydrophilic Degradable Microspheres for Local Delivering of Glycopeptide Antibiotics and Polycationic Peptide Antibiotics” (priority 2020, published 2023).

Parameters: species or system White New Zealand male rabbits
Conditions: rabbit, in vivo, sc, 18 mg/kg
Protocol: The study was performed in 6 White New Zealand male rabbits (body weight: 3.63±0.17 kg; min-max 3.47-3.88 kg) and included MS1 and MS2 loaded at 40 mg/mL of teicoplanin (Sigma, T-0578).
Briefly, teicoplanin was reconstituted in water for injection at the concentration of […] (100 mL). Sterile dry beads (≈6 mL in 5% glucose) were hydrated/loaded in the teicoplanin solution (20 mL) with continuous agitation on rotating wheel (≈30 rpm). After 20 min, the supernatant was retrieved and kept for drug quantification. Microspheres (MS1 and MS2) were then washed in water, and kept on shell until the time of administration. At the time of injection, MS were suspended in saline and the appropriate volume of bead (≈4 mL) suspension was sampled for injection at a ratio of 2:1 MS/saline (Table 7). Each microsphere was administered once subcutaneously at the same dose of drug at two injection sites to 2 animals. Teicoplanin control (Sigma, T-0578) was administered once in one animal and repeated daily in another animal. […]
A vascular access was gained in the auricular artery for blood sampling and in auricular vein for perfusion. […] The lowest limit of quantification of the method (LOQ) is 2.0 mg/L. The results of plasmatic assay of teicoplanin are reported in table 8 and in FIG. 7.

teicoplanin [Injectable teicoplanin]
Teicoplanin serum concentration: <2.0 mg/L
